# Marks after values point to notes of the source that are not given here.
# Assays:
# mice = assay: Lolitrem B intoxication in mice, tremor and movement analysis; assay type: in vivo; conditions: lolitrem B 2 mg/kg IP
# Procedure: FIG. 1. Tremor analysis of animals treated with a single dose of lolitrem B toxin. Tremor analysis: FFT frequency analysis from a mouse prior to (A) and 6 hours post lolitrem B injection 2 mg/kg i.p. (B). Low frequency (0-7 Hz) power output represents primarily movement. […] (D) Tremor-Motion power ratio at one hour post lolitrem B injection (n=4) and vehicle only control (n=4) (*p<0.05, lolitrem B (2 mg/kg i.p.) vs vehicle).
# Lolitrem B was tested in mice to establish this as a suitable model for perennial ryegrass toxicosis and lolitrem B intoxication in grazing animals. […] These signs are consistent with clinical signs seen in grazing animals (See FIG. 1).
# [1] = system: lolitrem B toxicosis (Rye Grass Staggers); assay: Clinical and neurological signs in sheep fed lolitrem B-containing toxic feed with or without potassium bromide; assay type: in vivo
# Procedure: Animals were exposed to a controlled diet containing 0.16 mg/kg body weight (BW) lolitrem B toxin rising to 0.27 mg/kg BW after 21 days exposure to toxic feed. Toxin was delivered as perennial rye grass seed (GA66 AR98, Grasslanz Technology Ltd, NZ) containing very high levels of lolitrem B toxin (11 ppm DM) as a component of the animal's feed intake.
# On entry to the trial, all animals receiving toxic feed were exposed to a diet containing experimental ryegrass seed with a final lolitrem B concentration of 0.08 mg/kg LW, lucerne chaff and molasses 30% w/v for 3 days. After this induction period, the toxin content of the feed was increased to 0.16 mg/kg LW for the duration of the trial. […] Ryegrass seed constituted up to 65% of available Feed on Offer (FOO) by dry weight contributing a metabolisable energy of 12.1 Mj/kg DM.
# At entry to the trial, all animals were subjected to a full clinical examination. Live weight was recorded. Venous blood and urine samples were collected for laboratory. Animals were also subjected to gait analysis, neurological examination including proprioceptive testing, cranial nerve examination and papillary light and menace reflexes. Electromyography (EMG) of tricep and neck muscles was performed. Gait analysis (see below) was repeated at three day intervals until onset of significant clinical signs and/or gait abnormality at which point animals were subjected to gait analysis daily. Gait analysis was recorded on video each occasion.
# General clinical signs were also noted on a daily basis; these included observations of nervousness or agitation, changes in normal placement of body, limb or head position changes in faecal consistency, feeding behaviour or water consumption, observeable tremor of the body or head, eye position (strabismus) and movement (nystagmus), locomotory disturbances, or any other clinical changes worthy of note. Feed and water intake was monitored daily for the duration of the trial. Heart rate, respiration rate at rest and rectal temperature were also monitored daily.
# Prophylactic sheep received a split loading dose of 300 mg/kg on day 1, 120 mg/kg (100 mg LD+20 mg/kg daily maintenance dose) on day 2, 120 mg/kg on day 3 and 20 mg/kg daily for the duration of the trial. An acute treatment dose of 300 mg/kg LW was used for the trial. Both prophylactic and acute treatment doses were envisaged to give serum concentrations of 750 to 1000 μg/ml for the duration of the initial weeks of the trial.
# Group 1—Negative Control: lucerne chaff only;
# Group 2—Positive Control: lucerne chaff containing 0.16 mg/kg LW lolitrem B;
# Prophylactic treatment sheep (Groups 4 & 5) received a split loading dose of 300 mg/kg on day 1 of the trial, 120 mg/kg (100 mg LD 20 mg/kg daily maintenance dose) on day 2, 120 mg/kg on day 3 and 20 mg/kg daily thereafter. Acute therapy sheep were dosed with a single dose of 300 mg/kg on day of falling.
# End of the trial was defined for Groups 2 and 3 as date of falling. Group 1 animals entered the end of trial protocol with their Group 2 counterparts. Group 4 and 5 animals entered the end of trial protocol after 22 days. This end of trial protocol consisted of the following analysis: • On Day 1: animals were subjected to a full clinical examination, gait analysis, urine and blood collection, neurological examination and EMG. • On Day 2: further gait analysis was recorded, • On Day 3: animals were again subjected to full clinical examination, gait analysis, urine and blood collection, neurological examination and EMG as well as live weight recorded prior to necropsy.
# sheep = assay: Clinical pathology of serum and urine; assay type: in vivo; conditions: toxin only and acute treatment groups, not outside normal ranges
# Text: Venous blood samples collected for biochemical analysis and haematocrit (PCV), and urine for USG, at three specific time points during the experiment for all animals: 1) on entry to the trial; 2) on date of entry to the end of trial protocol and, 3) on day of necropsy. Additional venous blood samples were occasionally collected for analysis of serum bromide (see below).
# For venous sampling, blood was collected from either the right or left jugular vein as determined by convenience and sampler preference. Needle hubs and sterile, single use 21 G needles and 10 mL Vacutainer® tubes were used for collection. Two Vacutainer® tube types were used for each animal: one containing a clot activator for serum collection, the other contained ethylenediamine tetra-acetic acid (EDTA) to prevent clotting. Tubes were inverted repetitively immediately after collection prior to storage on ice for transport to the laboratory. […]
# Urine samples were collected by attachment of a clean plastic bag using SuperGlue™ to the fleece on either side of the preputial opening. […] Urine specific gravity (USG) was determined using a refractometer (VQ5600 refractometer, VetQuip, Australia).
# Haematological and biochemical analysis was performed by the laboratory within 60 minutes of blood collection. Haematological analytes were measured using a CellDyn 3700 Haematology System (Abbott Diagnostics, Abbott Park, Ill., USA). […]
# [2] = PK studies performed prior to this trial (Combs and Edwards, personal communication); cited from earlier work
# [3] = sheep, Group 2: toxic feed (lolitrem B 0.16 mg/kg LW), no treatment
# [4] = sheep, Group 3: toxic feed plus single oral 300 mg/kg KBr on day of falling
# [5] = sheep, Group 4: toxic feed plus prophylactic oral KBr (300, 120, 120 then 20 mg/kg daily), 22 days
# [6] = sheep, Group 5: prophylactic oral KBr only, no toxic feed, 22 days
smiles,measurement,setting,value
CC(C)=C[C@H]1O[C@H]2[C@H]3O[C@@]34[C@H](CC[C@@]3(C)[C@@]4(O)CC[C@H]4Cc5c([nH]c6ccc7c(c56)C[C@@H]5[C@@H](C7=O)C(C)(C)OC5(C)C)[C@@]43C)O[C@@H]2C(C)(C)O1 [lolitrem B],"distinctive tremor spike, frequency range",mice,10-19 Hz
same,movement,mice,decrease in movement
same,time from Type 1 to Type 2 gait changes,[1]; intoxicated sheep,approximately 9 days
same,Menace reflex,[1]; lolitrem B intoxicated sheep,either lost or reduced
same,pupillary light reflex,[1]; lolitrem B intoxicated sheep,normal
same,"Ventral strabismus, animals affected","[1]; sheep, Group 2 (toxin only)",9/9
same,"Altered stance, mean number of days to onset (+/−s.e.m.)",[1]; [3],11.78(+/−2.58) days
same,"Altered stance, number of animals affected",[1]; [3],9/9
same,"Fine tremor, mean number of days to onset (+/−s.e.m.)",[1]; [3],8.22(+/−2.58) days
same,"Fine tremor, number of animals affected",[1]; [3],9/9
same,"First clinical signs, mean number of days to onset (+/−s.e.m.)",[1]; [3],7.56(+/−2.06) days
same,"First clinical signs, number of animals affected",[1]; [3],9/9
same,"Major body clonus, mean number of days to onset (+/−s.e.m.)",[1]; [3],17.33(+/−3.51) days
same,"Major body clonus, number of animals affected",[1]; [3],3/9
same,"Ventral strabismus, animals affected","[1]; sheep, Group 3 (toxin, acute KBr on day of falling)",7/9
same,"Ventral strabismus, animals affected","[1]; sheep, Group 4 (toxin plus prophylactic KBr)",6
same,"Renal function (creatinine, urea)",sheep,mildly compromised
[Br-].[K+] [potassium bromide],"Altered stance, mean number of days to onset (+/−s.e.m.)",[1]; [4],10.22(+/−2.10) days
same,"Altered stance, number of animals affected",[1]; [4],9/9
same,"Fine tremor, mean number of days to onset (+/−s.e.m.)",[1]; [4],12.43(+/−4.82) days
same,"Fine tremor, number of animals affected",[1]; [4],7/9
same,"First clinical signs, mean number of days to onset (+/−s.e.m.)",[1]; [4],8.56(+/−1.94) days
same,"First clinical signs, number of animals affected",[1]; [4],9/9
same,"Major body clonus, mean number of days to onset (+/−s.e.m.)",[1]; [4],11.67(+/−2.88) days
same,"Major body clonus, number of animals affected",[1]; [4],3/9
same,animals showing evidence of mild anxiolysis,"[1]; sheep, Group 4: toxic feed plus prophylactic oral KBr",^aIncludes 4/9 animals showing evidence of mild anxiolysis
same,"Altered stance, mean number of days to onset (+/−s.e.m.)",[1]; [5],8.33(+/−1.22) days
same,"Altered stance, number of animals affected",[1]; [5],9/9
same,"Fine tremor, mean number of days to onset (+/−s.e.m.)",[1]; [5],12.14(+/−4.45) days
same,"Fine tremor, number of animals affected",[1]; [5],7/9
same,"First clinical signs, mean number of days to onset (+/−s.e.m.)",[1]; [5],6.33(+/−1.73) days
same,"First clinical signs, number of animals affected",[1]; [5],9/9^a
same,"Major body clonus, mean number of days to onset (+/−s.e.m.)",[1]; [5],10.67(+/−2.65) days
same,"Major body clonus, number of animals affected",[1]; [5],5/9
same,altered stance reported earlier than in toxin-only counterparts,"[1]; sheep, Group 4 versus Groups 2 and 3",approximately two
same,animals showing evidence of mild anxiolysis,"[1]; sheep, Group 5: prophylactic oral KBr only",^bIncludes 5/9 animals showing evidence of mild anxiolysis
same,"Altered stance, mean number of days to onset (+/−s.e.m.)",[1]; [6],11.0(+/−4.69) days
same,"Altered stance, number of animals affected",[1]; [6],4/9
same,"Fine tremor, mean number of days to onset (+/−s.e.m.)",[1]; [6],11.00(+/−0.0) days
same,"Fine tremor, number of animals affected",[1]; [6],1/9
same,"First clinical signs, mean number of days to onset (+/−s.e.m.)",[1]; [6],10.75(+/−4.46) days
same,"First clinical signs, number of animals affected",[1]; [6],8/9^b
same,"Major body clonus, mean number of days to onset (+/−s.e.m.)",[1]; [6],0 days
same,"Major body clonus, number of animals affected",[1]; [6],0/9
same,range of onset of mild mood changes,"[1]; sheep, potassium bromide at the prophylactic dose",4 to 17 days
same,time of peak serum bromide levels post administration,[2],6 h
